{"source": "patent US20250127863A1", "about": "“ANTIMICROBIAL PEPTIDE FOR ONYCHOMYCOSIS” (CBMR SCIENTIFIC NANOSCIENCE B.V., priority 2019, published 2025)", "assay_in_all_cases": "MIC90 growth inhibition", "details_in_all_cases": "RPMI 1640 one-fourth strength", "key": {"C. krusei (LUMC)": {"test_system": "C. krusei (LUMC)", "format": "cell-based, Candida krusei", "description": "(§1) The minimum inhibitory concentration (MIC) value is defined as the lowest sample concentration that inhibited growth. In the Examples, the MIC90 value is presented, which MIC90 values are determined according to established methods known to the person with the skills in the relevant art. Experiments; 1×10E5 CFU of various strains/ml were incubated for 24-48 h at 37° C. in 4× diluted medium of RPMI 1640 with the indicated concentrations of antimicrobial peptide hLF(1-11) [SEQ ID NO: 3]. As controls various strains cells were incubated for 24-48 h at 37° C. with no agent (antimicrobial peptide), and subsequently, growth of the microbial organism (e.g. yeast, bacterium) was monitored by using spectrophotometry with a spectrophotometer at 620 nm. […] ND=Not done. Representative single assay data are listed rather than a range, for clarity reasons and for ease of comparison of peptide efficacy. The MIC was calculated as the lowest antibiotic (antimicrobial peptide) concentration at which growth of the assessed yeast or bacterium (microbe) was inhibited (inhibitory concentration IC90)."}, "C. krusei CMC-2002": {"test_system": "C. krusei CMC-2002", "format": "cell-based, Candida krusei", "description": "as §1"}, "C. krusei spp": {"test_system": "C. krusei spp", "format": "cell-based, Candida krusei", "description": "as §1"}, "C. albicans AA (LUMC)": {"test_system": "C. albicans AA (LUMC)", "format": "cell-based, Candida albicans", "description": "as §1"}, "C. albicans ATCC 10231": {"test_system": "C. albicans ATCC 10231", "format": "cell-based, Candida albicans", "description": "as §1"}, "C. albicans CBS-562": {"test_system": "C. albicans CBS-562", "format": "cell-based, Candida albicans", "description": "as §1"}, "C. albicans CMC-1968": {"test_system": "C. albicans CMC-1968", "format": "cell-based, Candida albicans", "description": "as §1"}, "C. albicans (WT)": {"test_system": "C. albicans (WT)", "format": "cell-based, Candida albicans", "description": "as §1"}}, "note": "No end group written: not given here."}
{"sequence": "GRRRRSVQWCA [hLF1-11, Gly Arg Arg Arg Arg Ser Val Gln Trp Cys Ala]", "values": [{"measurement": "Inhibitory concentration MIC (MIC90)", "setting": "C. krusei (LUMC)", "value": "MIC = 25 μg/mL"}, {"measurement": "Inhibitory concentration MIC (MIC90)", "setting": "C. krusei CMC-2002", "value": "MIC = 25 μg/mL"}, {"measurement": "Inhibitory concentration MIC (MIC90)", "setting": "C. krusei spp", "value": "MIC = 10-25 μg/ml"}, {"measurement": "Inhibitory concentration MIC (MIC90)", "setting": "C. albicans AA (LUMC)", "value": "MIC = 25 μg/mL"}, {"measurement": "Inhibitory concentration MIC (MIC90)", "setting": "C. albicans ATCC 10231", "value": "MIC = 25 μg/mL"}, {"measurement": "Inhibitory concentration MIC (MIC90)", "setting": "C. albicans CBS-562", "value": "MIC = 25 μg/mL"}, {"measurement": "Inhibitory concentration MIC (MIC90)", "setting": "C. albicans CMC-1968", "value": "MIC = 25 μg/mL"}, {"measurement": "Inhibitory concentration MIC (MIC90)", "setting": "C. albicans (WT)", "value": "MIC = 25 μg/ml"}]}
